Source: article PMC10872342, “9S1R nullomer peptide induces mitochondrial pathology, metabolic suppression, and enhanced immune cell infiltration, in triple-negative breast cancer mouse model” (Biomedicine & pharmacotherapy = Biomedecine & …, 2023)
“Also recorded” adds a separate entry of the source. Ends that are not written are not given here.

Legend:
[1] = test system: 4T1.2-Luc TNBC tumors in Balb/c mice; assay: Pilot study, 4T1.2-Luc bilateral mammary tumor model, six IP doses; type: in vivo, mouse; conditions: study-1, trehalose only group
Source text: The model was created by orthotopically injecting 4T1.2-Luc cells in the 4th mammary fat pad of Balb/c mice, with 1 × 10^5 cells per mouse. The cell line was developed by Dr. Cheryl L. Jorcyk and expresses the luciferase gene which serves as a luminescent indicator of gene expression or tumorigenesis, making the tumor cell traceable in vivo. Treatment started after the formation of palpable tumors and was detected by in vivo BLI (IVIS, Perkin Elmer) followed by randomization of the animals per group. For evaluating the effect of the peptides on this model, we carried out two separate studies. The first pilot study involved a set of 4 mice per group with bilateral mammary tumors, which received six IP administration of PBS, 9S1R-NulloPT drug at 50 mg/kg, 100 mg/kg body weight or Trehalose, over a period of 2 weeks. The present study includes a set of 7–9 mice per group with unilateral tumors including the same groups as in the pilot study, but received a total of eight injections per mouse over a period of 2 weeks. […]
Supplementary Fig 2: Detailed results from pilot first study with six IP administration of PBS (control), Trehalose, 50mg/kg NulloPT and 100 mg/kg NulloPT in TNBC mice. […] Treatment started after the formation of palpable tumors and was detected by an in vivo BLI system (IVIS, Perkin Elmer) followed by randomization of the animals per group. […]

[2] = test system: 4T1.2-Luc TNBC tumors in Balb/c mice; assay: 4T1.2-Luc orthotopic TNBC mouse model, unilateral tumors, eight IP doses; type: in vivo; conditions: trehalose only group, H&E scoring
Source text: The model was created by orthotopically injecting 4T1.2-Luc cells in the 4th mammary fat pad of Balb/c mice, with 1 × 10^5 cells per mouse. The cell line was developed by Dr. Cheryl L. Jorcyk and expresses the luciferase gene which serves as a luminescent indicator of gene expression or tumorigenesis, making the tumor cell traceable in vivo. Treatment started after the formation of palpable tumors and was detected by in vivo BLI (IVIS, Perkin Elmer) followed by randomization of the animals per group. For evaluating the effect of the peptides on this model, we carried out two separate studies. […]
Mice were anesthetized by isoflurane followed by measurement of the tumor length and width using a manual Vernier caliper. This was performed before every drug administration and the tumor volume was calculated using the formula (length × width^2)/2. Body weights were also measured before every dose of the drug.
Whole-body bioluminescence imaging (BLI) using the In Vivo Imaging System (IVIS® Spectrum, Perkin Elmer) was performed to detect in vivo tumor burden and metastasis, as evaluated by the bioluminescence signal from the 4T1.2-Luc cells. […] The images were analyzed by Perkin Elmer software and Aura Version 4.0.7 (Spectral instruments Imaging). […]

[3] = Half-life of peptide 9S1R in serum; type: in vitro ADME; conditions: bovine, fetal bovine serum; peptide spiked into FBS, 37 °C, exposure 30 s, 5, 30, 60, 90 min; 75% ice cold acetonitrile precipitation; HPLC-QTOF MS, log2 EIC peak area vs time; read-out: half-life (t1/2) in fetal bovine serum
Procedure: The half-life of peptide 9S1R was determined by spiking the peptide into fetal bovine serum (FBS) for exposure times of 30 s and 5, 30, 60 or 90 min. During the exposure, FBS containing the spike peptides were incubated at 37 °C. The exposure was halted, and the peptide was extracted from FBS using protein precipitation. Protein precipitation was accomplished using 75% ice cold acetonitrile, followed by incubation at − 20 °C for one hour, and centrifugation at 9000 rpm for 10 min at […]. The supernatant was removed and saved for analysis. Peptide samples were analyzed by High pressure liquid chromatography (HPLC) mass spectrometry (MS) using an ultra-high-resolution Quadrupole Time of Flight (QTOF) instrument (Bruker maxis, Bruker Corporation, Billerica, MA, USA). HPLC mobile phase consisted of 18 MΩ H2O and HPLC grade formic acid and acetonitrile (> 99% purity, Fisher Scientific, Pittsburgh, PA, USA). The electrospray ionization (ESI) source was operated under the following conditions: positive ion mode; nebulizer pressure: 1.2 Bar; flow rate of drying gas (N2): 8 L/min; drying gas temperature: 200 °C; voltage between HV capillary and HV end-plate offset: 3000 V to – 500 V; mass range was set from 250 to 2900 m/z; and the quadrupole ion energy was 4.0 eV. […]

4T1.2 cells = assay: LC-MS detection of peptide internalization within cells; type: cell-based, mouse; conditions: 50uM, 2h, PBS wash, lysis, 3KDa filter, 3+ and 4+ forms
Procedure: Supplementary Fig 1: Detection of peptide internalization and stability within cells. (A) LC-MS Graph showing peak of peptide only spike at 1mg/ml final concentration (positive control) (B) Sample-1: 2 × 10^5 4T1.2 cells lysate was filtered through a 3KDa cut-off Amicon protein filters (Millipore) to get rid of proteins larger than 3KDa, followed by LC-MS detection (negative control). (C) Sample-2: 2 × 10^5 4T1.2 cells lysate (50ul) was mixed with the peptide at 1mg/ml final concentration and incubated for 30 mins followed by filtering through 3 KDa cut-off filter and LC-MS detection. (D) Sample-3: 50 ul of filtered cell lysate or Sample-1 was mixed with the peptide at 1mg/ml final concentration and incubated for 30 mins followed by LC-MS detection. (E) Sample-4: Cells were treated with 50uM of peptide and incubated for 2h followed by washing in PBS, lysis, passing through 3KDa protein filter, and detection by LC-MS. […] (G) Enlarged peaks from- C, Sample-2 with (H) extracted ion chromatogram (EIC) peaks of the detected peptide at the exact 3+ and 4+ valance forms (red circles). (I) Enlarged peaks from- E, Sample-4 with (J) extracted ion chromatogram (EIC) peaks of the detected peptide at the exact 3+ and 4+ valance forms (red circles).

| Compound | tumor size with trehalose alone [1] | immune cell infiltration or margin inflammation on the tumors [2] | half-life [3] [min] | uptake of native untagged peptide inside cells by mass spectrometry (4T1.2 cells) |
| --- | --- | --- | --- | --- |
| OC[C@H]1O[C@H](O[C@H]2O[C@H](CO)[C@@H](O)[C@H](O)[C@H]2O)[C@H](O)[C@@H](O)[C@@H]1O [Trehalose] | higher than control tumor size | did not show any effect |  |  |
| RRRRRWCMNW [9S1R] |  |  | 8.7 | detected inside cells in two forms; also recorded: available inside the cells |
